{"source": "patent US20090232735A1", "about": "“USE OF FRUCTOSE-BASED THERAPIES FOR THE TREATMENT OF CANCER” (CEDARS-SINAI MEDICAL CENTER, priority 2005, published 2009)", "key": {"[1]": {"system": "pancreatic cancer development", "conditions": "cited from earlier work"}, "[2]": {"system": "PANC-1 pancreatic cancer cells", "assay": "[1,2-13C2] stable isotope metabolic profiling in PANC-1 cells", "format": "cell-based, human", "method": "FIG. 28 depicts the metabolism of fructose and glucose in pancreatic cancer cells in accordance with an embodiment of the present invention. Lactate generation from glycolysis (a), and hexose oxidation in the pentose and tricarboxylic acid cycles (b) following treatment of PANC-1 cells with 2 mM glucose, 5.5 mM glucose, and 5.5 mM fructose for 72 h. […] In (b), the ^13C to ^12C ratio in the CO2 released from the PANC-1 cells is presented.\nFIG. 29 depicts fatty acid synthesis from glucose versus fructose in accordance with an embodiment of the present invention. Fatty acid synthesis represented by (a), ^13C-labelled oleate, (b) ^13C-labelled arachidic acid, and (c) ^13C-labelled 24-carbon fatty acid fraction following treatment of PANC-1 cells with 2 mM, and 5.5 mM glucose, and 5.5 mM fructose for 72 h. For the fatty acids, the fraction of ^13C-labeled oleate, arachidic acid or 24-carbon fatty acid is expressed as percentage of total oleate, arachidic acid or 24-carbon fatty acids, respectively.\nFIG. 30 depicts ribose and deoxyribose synthesis following glucose and fructose treatment in accordance with an embodiment of the present invention.\nMetabolism comprises anabolic (converting small molecules into big ones) and catabolic processes (converting food into useful energy), predicts the functional state of a cell, and analyzes the levels of the end products (metabolites) of anabolism and catabolism. […] The inventors employed [1, 2-^13C2] glucose, or [1,2-^13C2] fructose stable isotope-based dynamic metabolic profiling (SiDMAP, Los Angeles, US) to track and quantify changes in glucose, and fructose carbon re-distribution among major metabolic pathways in pancreatic cancer cells (Lee W N, Boros L G, Puigjaner J, Bassilian S, Lim S, Cascante M. Mass istopomer study of transketolase-transaldolase pathways of the pentose cycle with [1,2-^13C2]glucose. Am J Physiol 274:E843-51, 1998; Lee W N, Byerley L O, Bassilian S, Ajie H O, Clark I, Edmond J. Isotopomer study of lipogenesis in human hepatoma cells in culture: contribution of carbon and hydrogen atoms from glucose. […]"}, "[3]": {"assay": "Serum fructose and glucose in normal volunteers after two cans of soda", "format": "in vivo, human", "method": "FIG. 37 depicts fasting serum fructose and glucose levels in patients with pancreatic cancer and in normal volunteers in accordance with an embodiment of the present invention. (a) Fasting serum fructose and glucose levels in 6 patients with pancreatic cancer on the morning of resection. (b) Serum fructose, and glucose levels (Mean±SEM) in 3 normal volunteers after a 10 h fast, followed by ingestion of two cans of soda, containing 76 g of carbohydrate in the form of high fructose corn syrup (55% fructose, 45% glucose).\nThe normal circulating concentrations of fructose are unknown. […] Briefly, aliquots (20 μl) of fructose standards (0.1, 0.5, 1, 2, 4, 6, and 8 mM) or unknown serum samples were mixed with 5 μl of a stock solution (125 U/ml) of the enzyme fructose dehydrogenase (Sigma) in 175 μl citric acid (0.05 M) phosphate (0.09 M) buffer (pH 4.5), and 20 μl of 3-(4,5-dimethylthiazol-2-yl)-2,5-diphenyltetrazolium bromide (MTT), and phenazine methosulfate (Promega), incubated for 30 minutes, after which absorbance at 570 nm was recorded in a 96-well spectrophotometer. […] As the first analysis, in accordance with institutional review board guidelines, the inventors obtained 32 serum samples randomly selected from anonymous inpatients at Cedars-Sinai Medical Center. The inventors also measured glucose in these same samples using standard glucose oxidase based methods. No details of medical condition were known for these patients, and as depicted in FIG. 36, in 24 of these 32 patients, serum fructose was greater than 5 mM. This intriguing result prompted the inventors to examine serum fructose levels in two other settings. Firstly, the inventors drew fasting blood samples from 6 patients with pancreatic cancer on the morning of surgical tumor resection. As depicted in FIG. 37a, 4 of these 6 patients had fasting serum fructose levels >5 mM, and two patients had serum fructose concentrations of ˜12 mM. The significance of these findings in pancreatic cancer patients is at this point unclear, but the inventors believe that the fructose-mediated pro-proliferative effects seen in pancreatic cancer cells in vitro are of significance, given the circulating fructose concentrations the inventors measured. In a further experiment, 3 normal volunteers fasted for 10 hours, an indwelling cannula was placed in a forearm vein, baseline fasting blood drawn, after which they drank two cans of regular soda, which contained 76 g of sugars, almost exclusively high fructose corn syrup. This source of carbohydrate was chosen to approximate to equivalent glucose concentrations used in a standard 75 g glucose tolerance test, and to bear relevance that dietary sources of high content refined fructose may pose an independent risk factor for pancreatic cancer growth."}}}
{"smiles": "O=C(CO)[C@@H](O)[C@H](O)[C@H](O)CO", "note": "[fructose]", "values": [{"measurement": "relative risk of pancreatic cancer", "setting": "[1]; high fructose intake, women with increased BMI (>25) or sedentary lifestyle", "value": 3.17}, {"measurement": "increased risk of pancreatic cancer development", "setting": "[1]; women reporting a high fructose-intake", "value": 57, "unit": "%"}, {"measurement": "pentose phosphate shunt pathway used (oxidative G6PDH vs non-oxidative TKK)", "setting": "[2]; PANC-1, 5.5 mM sugar, 72 h", "value": "preferentially metabolized by TKK"}, {"measurement": "lactate and CO2 production lower for fructose in comparison to glucose", "setting": "[2]; PANC-1, 13C-labeled sugar, 72 h", "value": "3-4 fold"}, {"measurement": "13C-labeled sugar metabolized for fatty acid synthesis", "setting": "[2]; PANC-1, 72 h, fructose compared to glucose", "value": "comparatively less"}, {"measurement": "mean fasting fructose level", "setting": "[3]; 3 normal volunteers, 10 h fast, before soda", "value": 2.66, "unit": "mM"}, {"measurement": "mean serum fructose peak", "setting": "[3]; 30 minutes after two sodas", "value": 17, "unit": "mM"}, {"measurement": "serum fructose levels", "setting": "[3]; for the 2 hour duration of blood sampling after two sodas", "value": "greater than 5 mM"}, {"measurement": "mean serum fructose levels", "setting": "[3]; within 15 minutes after two sodas (76 g sugars, high fructose corn syrup)", "value": 16.5, "unit": "mM"}]}
